Where two headings read alike, the source gives them in different places.
Experiments:
[1] = system: human oral squamous carcinoma HSC-2 cells; test: CCK-8 antiproliferative assay, HSC-2; type: cell-based; conditions: read-out: IC50 (μM) HSC-2
Description: (§1) The in vitro antiproliferative activities of target compounds were investigated against human oral squamous carcinoma HSC-2, SCC-9, and A253 cells and human renal tubular epithelial HK-2 cells by Cell Counting Kit-8 (CCK-8) assay. The HSC-2, SCC-9, and A253 cell lines were purchased from Cobioer Biosciences (Nanjing, China), and HK-2 cell line was from KeyGen Biotech (Nanjing, China). The cells were placed into 96-well plates. After 24 h, cells were treated with 0.1% DMSO or different doses of test compounds for 72 h at 37°C in a CO2 incubator. Subsequently, 100 μl of CCK-8 test solution was added and incubated for 3 h at 37°C. The absorbance value of each well was measured at 450 nm.

[2] = system: human oral squamous carcinoma SCC-9 cells; test: CCK-8 antiproliferative assay, SCC-9; type: cell-based; conditions: read-out: IC50 (μM) SCC-9
Description: as §1

[3] = system: human oral squamous carcinoma A253 cells; test: CCK-8 antiproliferative assay, A253; type: cell-based; conditions: read-out: IC50 (μM) A253
Description: as §1

[4] = system: human renal tubular epithelial HK-2 cells; test: CCK-8 assay on normal cells, HK-2; type: cell-based; conditions: read-out: IC50 (μM) HK-2
Description: as §1

HSC-2 cells [5] = test: Cell cycle analysis by flow cytometry (PI); type: cell-based, human; conditions: 48 h
Description: HSC-2 cells were incubated in six-well plates and then treated with 0.1% DMSO or different concentrations of test compounds for 48 h. Subsequently, cells were fixed with 70% ethanol at 4°C overnight. After that, cells were washed with phosphate-buffered saline (PBS) and stained with 100 μl of RNase A at 37°C for 30 min and then 400 μl of propidium iodide (PI) at 4°C for 30 min. The cell cycle was measured by flow cytometry.

HSC-2 cells [6] = test: Cell apoptosis analysis by flow cytometry (Annexin V/7-AAD); type: cell-based, human; conditions: HSC-2, 0.1, 0.25 and 0.5 μM, 48 h, dose-dependent
Description: HSC-2 cells were seeded into six-well plates, grown overnight at 37°C in a 5% CO2 incubator, and then treated with 0.1% DMSO or different concentrations of test compounds for 48 h. Cells were washed twice with ice-cold PBS and then suspended with 500 μl of binding buffer. Subsequently, 5 μl of Annexin V-APC and 5 μl of 7-AAD were added, and the cells were incubated at room temperature for 15 min in the dark. The samples were analyzed by flow cytometry.

HSC-2 cells [7] = test: Mitochondrial membrane potential assay (JC-1); type: cell-based, human; conditions: HSC-2, 0.1, 0.25 and 0.5 μM, 48 h, JC-1, dose-dependent
Description: HSC-2 cells were seeded on six-well plates and grown overnight at 37°C in a 5% CO2 incubator. Then, cells were incubated with 0.1% DMSO or different concentrations of compounds at 37°C for 48 h. Subsequently, cells were trypsinized, washed with PBS, and resuspended in incubation buffer containing JC-1 at 37°C for 20 min in a 5% CO2 incubator. The dyeing cells were rinsed, suspended in incubation PBS, and then analyzed d by flow cytometry.

HSC-2 cells [8] = test: AO/EB double staining assay; type: cell-based, human; conditions: HSC-2, 0.1, 0.25 and 0.5 μM, 48 h
Description: HSC-2 cells were seeded on six-well plates and grown overnight at 37°C in a 5% CO2 incubator. Then, cells were incubated with 0.1% DMSO or different concentrations of compounds at 37°C for 48 h. Subsequently, cells were trypsinized, collected, washed with PBS, and stained with 100 μl of AO/EB dye at room temperature for 15 min in the dark. The dyeing cells were rinsed, suspended in incubation PBS, and then observed under a fluorescence microscope.

[9] = system: microtubule network in HSC-2 cells; test: Immunofluorescence assay of microtubule network; type: cell-based, human; conditions: HSC-2, 0.1, 0.25 and 0.5 μM, 48 h, dose-dependent
Description: HSC-2 cells were seeded on 24-well plates, grown overnight at 37°C in a 5% CO2 incubator, and then incubated with 0.1% DMSO or different concentrations of compounds at 37°C for 48 h. Cells were washed with PBS, fixed with 4% paraformaldehyde, and then further permeabilized with 0.5% Triton X-100 for 10 min. Subsequently, cells were blocked for 20 min by 50–100 μl of goat serum albumin at room temperature and then treated with α-tubulin primary antibody at 4°C for 2 h. Then, cells were treated with the Alexa Fluor 488-labeled goat anti-rabbit fluorescence secondary antibody at 37°C for 1 h in the dark, and the cell nuclei were labeled by DAPI at room temperature for 5 min. Finally, cells were visualized under a confocal microscope.

HSC-2 cells [10] = test: Wound healing migration assay; type: cell-based, human; conditions: HSC-2, 0.1, 0.25 and 0.5 μM, 48 h, dose-dependent
Description: HSC-2 cells were seeded on six-well plates and grown to 80% at 37°C in a 5% CO2 incubator. Then, cells were scratched using the tip of the pipette, then washed with PBS to remove the non-adherent cells, and incubated with 0.1% DMSO or different concentrations of compounds at 37°C for 48 h. The images of cell migration were photographed with an inverted fluorescent microscope at 0 and 48 h.

CDK2 = test: Western blot, CDK2; type: cell-based, human; conditions: HSC-2, 0.1, 0.25 and 0.5 μM, 48 h
Description: (§2) After being cultured, HSC-2 cells were treated with 0.1% DMSO or different concentrations of compounds at 37°C for 48 h. Then, cells were collected, washed twice with PBS, and lysed with cold lysis buffer, followed by centrifugation. Then, the total proteins were collected, and protein concentration was quantified using Bradford assay. Equal amounts of proteins were electrophoresed by 10% sodium dodecyl sulfate–polyacrylamide gel electrophoresis (SDS-PAGE) and transferred onto nitrocellulose (NC) membrane. Membranes were blocked with 5% non-fat milk for 2 h, then washed, and incubated with primary antibodies overnight at 4°C. After being washed, the membranes were treated with secondary antibodies at room temperature for 2 h and then visualized using an ECL Western blotting kit.

cyclin A2 = test: Western blot, cyclin A2; type: cell-based, human; conditions: HSC-2, 0.1, 0.25 and 0.5 μM, 48 h
Description: as §2

cleaved caspase3 = test: Western blot, cleaved caspase3; type: cell-based, human; conditions: HSC-2, 0.1, 0.25 and 0.5 μM, 48 h, concentration-dependent
Description: as §2

cleaved PARP = test: Western blot, cleaved PARP; type: cell-based, human; conditions: HSC-2, 0.1, 0.25 and 0.5 μM, 48 h, concentration-dependent
Description: as §2

E-cadherin = test: Western blot, E-cadherin; type: cell-based, human; conditions: HSC-2, 0.1, 0.25 and 0.5 μM, 48 h
Description: as §2

MMP-2 = test: Western blot, MMP-2; type: cell-based, human; conditions: HSC-2, 0.1, 0.25 and 0.5 μM, 48 h
Description: as §2

Beclin1 = test: Western blot, Beclin1; type: cell-based, human; conditions: HSC-2, 0.1, 0.25 and 0.5 μM, 48 h
Description: as §2

LC3 = test: Western blot, LC3; type: cell-based, human; conditions: HSC-2, 0.1, 0.25 and 0.5 μM, 48 h
Description: as §2

p-AMPK = test: Western blot, p-AMPK; type: cell-based, human; conditions: HSC-2, 0.1, 0.25 and 0.5 μM, 48 h, dose-dependent
Description: as §2

p-AKT = test: Western blot, p-AKT; type: cell-based, human; conditions: HSC-2, 0.1, 0.25 and 0.5 μM, 48 h
Description: as §2

p-mTOR = test: Western blot, p-mTOR; type: cell-based, human; conditions: HSC-2, 0.1, 0.25 and 0.5 μM, 48 h
Description: as §2

[11] = normal cells, CCK-8, 72 h, mean ± SD

Compound `O=c1[nH]cc(F)c(=O)[nH]1` [5-FU] has an IC50 ([1]; CCK-8, 72 h, mean ± SD) of 7.12 ± 0.87 µM, an IC50 ([2]; CCK-8, 72 h, mean ± SD) of 5.35 ± 0.784 µM and an IC50 ([3]; CCK-8, 72 h, mean ± SD) of 5.52 ± 0.199 µM. The IC50 [4, 11] was 8.77 ± 1.04 µM.
`N.N.[Cl][Pt][Cl]` [Cisplatin, cisplatin] was tested, and the IC50 ([1]; CCK-8, 72 h, mean ± SD) was 2.03 ± 0.308 µM, the IC50 ([2]; CCK-8, 72 h, mean ± SD) was 2.35 ± 0.384 µM and the IC50 ([3]; CCK-8, 72 h, mean ± SD) was 1.62 ± 0.157 µM. For the same compound, the IC50 [4, 11] was 5.36 ± 0.33 µM.
Compound `COc1cc([C@@H]2c3cc4c(cc3[C@H](OC(=O)COc3ccc5c(C)cc(=O)oc5c3)[C@H]3COC(=O)[C@H]23)OCO4)cc(OC)c1OC` [12a] has an IC50 ([1]; Homo sapiens, HSC-2, 72 h) of 0.281 ± 0.024 µM, an IC50 ([2]; Homo sapiens, SCC-9, 72 h) of 0.279 ± 0.041 µM and an IC50 ([3]; Homo sapiens, A253, 72 h) of 0.349 ± 0.063 µM. It also gave an IC50 ([4]; Homo sapiens, HK-2, 72 h) of 0.814 ± 0.173 µM.
With `COc1cc([C@@H]2c3cc4c(cc3[C@H](OC(=O)COc3ccc5ccc(=O)oc5c3)[C@H]3COC(=O)[C@H]23)OCO4)cc(OC)c1OC` [12b] the IC50 ([1]; Homo sapiens, HSC-2, 72 h) was 0.226 ± 0.021 µM, the IC50 ([2]; Homo sapiens, SCC-9, 72 h) was 0.231 ± 0.05 µM and the IC50 ([3]; Homo sapiens, A253, 72 h) was 0.25 ± 0.019 µM. The IC50 ([4]; Homo sapiens, HK-2, 72 h) was 0.626 ± 0.043 µM, the “Effect on cell cycle” value (HSC-2 cells [5]; HSC-2, 0.1 μM) was “significant S accumulation” and the “Effect on cell cycle” value (HSC-2 cells [5]; HSC-2, 0.25 and 0.5 μM) was “cell cycle arrest at both S and G2 phases”. The Induction of apoptosis (HSC-2 cells [6]) was “obviously induced apoptosis”, the “Mitochondrial membrane potential (MMP)” value (HSC-2 cells [7]) was “significantly decreased” and the “Morphological change, AO/EB staining” value (HSC-2 cells [8]) was “chromatin condensation and shrinkage”. For the same compound, the “Effect on microtubule network organization” value [9] was “disruption of microtubule network organizations”, the Cell migration (HSC-2 cells [10]) was “inhibited HSC-2 cell migration” and the “Relative level of CDK2” value (CDK2) was “suppressed in a concentration-dependent manner”. For the same compound, the “Relative level of cyclin A2” value (cyclin A2) was “suppressed in a concentration-dependent manner”, the “Relative level of cleaved caspase3” value (cleaved caspase3) was “upregulated” and the “Relative level of cleaved PARP” value (cleaved PARP) was “upregulated”. The “Expression of E-cadherin” value (E-cadherin) was “obviously enhanced”, the “Expression of MMP-2” value (MMP-2) was “reduced” and the “Aggregation of Beclin1” value (Beclin1) was “increasing”. For the same compound, the “Aggregation of LC3” value (LC3) was “increasing”, the “Level of cleavage of LC3 (LC3-II)” value (LC3) was “upregulated” and the p-AMPK expression (p-AMPK) was “upregulated”. For the same compound, the “Phosphorylation of AKT” value (p-AKT) was “downregulated” and the mTOR phosphorylation (p-mTOR) was “inhibition”.
In the case of `COc1cc([C@@H]2c3cc4c(cc3[C@@H](O[C@@H]3O[C@@H]5CO[C@@H](C)O[C@H]5[C@H](O)[C@H]3O)[C@H]3COC(=O)[C@H]23)OCO4)cc(OC)c1O` [Etoposide, etoposide], the IC50 ([1]; Homo sapiens, HSC-2, CCK-8, 72 h, mean ± SD) is reported as 1.25 ± 0.467 µM, the IC50 ([2]; Homo sapiens, SCC-9, CCK-8, 72 h, mean ± SD) is reported as 1.15 ± 0.308 µM and the IC50 ([3]; Homo sapiens, A253, CCK-8, 72 h, mean ± SD) is reported as 0.95 ± 0.387 µM. For the same compound, the IC50 ([4]; Homo sapiens, HK-2, normal cells, CCK-8, 72 h, mean ± SD) was 3.04 ± 1.37 µM.

Reference: publication PMC7843452, “Novel Hybrids of Podophyllotoxin and Coumarin Inhibit the Growth and Migration of Human Oral Squamous Carcinoma Cells” (Frontiers in Chemistry, 2021)
